Reference: patent US9708314B2, “Heterocyclic amide compound” (NISSAN CHEMICAL INDUSTRIES, LTD., priority 2013, dated 2017)

Assays:
Assay type in all cases: in vivo
Scirpus juncoides = assay: Test Example 2: herbicidal activity, application during weed generation in submerged conditions; details: Eighteenth Table; application herbicide amount 320 g/ha
Outline: (§1)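 Seeds were sown together in alluvial soil kept under 4 cm of water and grown at 25 °C to 30 °C. Once plants reached the one- to two-leaf stage, the diluted emulsion was applied to the water surface at a predetermined g/ha amount, and effects were rated 0–5 after three weeks.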

Monochoria vaginalis = assay: as above; details: Eighteenth Table; application herbicide amount 320 g/ha
Outline: as §1

[1] = system: Echinochloa oryzacola Vasing.; assay: as above; details: Eighteenth Table; application herbicide amount 320 g/ha
Outline: as §1

Triticum aestivum = assay: Test Example 4: effect on crop by application to foliage (diluvial soil, plastic box); details: application to foliage, 320 g/ha
Outline: (§2)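 Greenhouse plants (25° C. to 30° C., 14 d, diluvial soil) receive a foliar spray of water-diluted emulsifiable formulation at defined g/ha. Grading after 3 weeks uses a six-step herbicidal-ratio scale, with 4 covering 70% to <90% and 1 covering 5% to <20%.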

[2] = system: Beta vulgaris ssp. vulgaris; assay: as above; details: application to foliage, 320 g/ha
Outline: as §2

Zea mays = assay: as above; details: application to foliage, 320 g/ha
Outline: as §2

Brassica campestris L. = assay: as above; details: application to foliage, 320 g/ha
Outline: as §2

Glycine max = assay: as above; details: application to foliage, 320 g/ha
Outline: as §2

[3] = system: directly sowed Oryza sativa; assay: as above; details: application to foliage, 320 g/ha
Outline: as §2

[4] = system: Echinochloa crus-galli var. crus-galli; assay: Test Example 4: herbicidal effect by application to foliage (diluvial soil, plastic box); details: application to foliage, 320 g/ha
Outline: as §2

Veronica persica = assay: as above; details: application to foliage, 320 g/ha
Outline: as §2

Lolium multiflorum Lam. = assay: as above; details: application to foliage, 320 g/ha
Outline: as §2

Chenopodium album = assay: as above; details: application to foliage, 320 g/ha
Outline: as §2

Digitaria ciliaris = assay: as above; details: application to foliage, 320 g/ha
Outline: as §2

Apera spica-venti. = assay: as above; details: application to foliage, 320 g/ha
Outline: as §2

Avena fatua = assay: as above; details: application to foliage, 320 g/ha
Outline: as §2

Stellaria media = assay: as above; details: application to foliage, 320 g/ha
Outline: as §2

Setaria viridis = assay: as above; details: application to foliage, 320 g/ha
Outline: as §2

Abutilon theophrasti = assay: as above; details: application to foliage, 320 g/ha
Outline: as §2

Galium spurium = assay: as above; details: application to foliage, 320 g/ha
Outline: as §2

Amaranthus retroflexus = assay: as above; details: application to foliage, 320 g/ha
Outline: as §2

Alopecurus myosuroides = assay: as above; details: application to foliage, 320 g/ha
Outline: as §2

SMILES | B (Scirpus juncoides) herbicidal ratio grade (Scirpus juncoides) | C (Monochoria vaginalis) herbicidal ratio grade (Monochoria vaginalis) | A (Echinochloa oryzicola Vasing.) herbicidal ratio grade [1] | effect on crop, e (Triticum aestivum) (Triticum aestivum) | effect on crop, f (Beta vulgaris ssp. vulgaris) [2] | effect on crop, b (Zea mays) (Zea mays) | effect on crop, g (Brassica campestris L.) (Brassica campestris L.) | effect on crop, c (Glycine max) (Glycine max) | effect on crop, d (directly sowed Oryza sativa) [3] | herbicidal effect, H (Echinochloa crus-galli var. crus-galli) [4] | herbicidal effect, R (Veronica persica) (Veronica persica) | herbicidal effect, K (Lolium multiflorum Lam.) (Lolium multiflorum Lam.) | herbicidal effect, O (Chenopodium album) (Chenopodium album) | herbicidal effect, F (Digitaria ciliaris) (Digitaria ciliaris) | herbicidal effect, L (Apera spica-venti.) (Apera spica-venti.) | herbicidal effect, I (Avena fatua) (Avena fatua) | herbicidal effect, P (Stellaria media) (Stellaria media) | herbicidal effect, G (Setaria viridis) (Setaria viridis) | herbicidal effect, M (Abutilon theophrasti) (Abutilon theophrasti) | herbicidal effect, Q (Galium spurium) (Galium spurium) | also measured
CC(C)c1nnc2c(C(=O)Nc3nnnn3Cc3ccc(Cl)cc3)ccc(C(F)(F)F)n12 [2-093] | 4 (Herbicidal ratio of 70% or more and less than 90%) | 3 (Herbicidal ratio of 40% or more and less than 70%) | 2 (Herbicidal ratio of 20% or more and less than 40%) | 1 (Herbicidal ratio of 5% or more and less than 20%) | 2 (Herbicidal ratio of 20% or more and less than 40%) | 0 (Herbicidal ratio of 5% or less (almost no effect)) | 1 (Herbicidal ratio of 5% or more and less than 20%) | 0 (Herbicidal ratio of 5% or less (almost no effect)) | 3 (Herbicidal ratio of 40% or more and less than 70%) | 1 (Herbicidal ratio of 5% or more and less than 20%) | 2 (Herbicidal ratio of 20% or more and less than 40%) | 1 (Herbicidal ratio of 5% or more and less than 20%) | 5 (Herbicidal ratio of 90% or more (almost completely withered)) | 1 (Herbicidal ratio of 5% or more and less than 20%) | 1 (Herbicidal ratio of 5% or more and less than 20%) | 1 (Herbicidal ratio of 5% or more and less than 20%) | 5 (Herbicidal ratio of 90% or more (almost completely withered)) | 0 (Herbicidal ratio of 5% or less (almost no effect)) | 3 (Herbicidal ratio of 40% or more and less than 70%) | 2 (Herbicidal ratio of 20% or more and less than 40%) | herbicidal effect, N (Amaranthus retroflexus) (Amaranthus retroflexus): 2 (Herbicidal ratio of 20% or more and less than 40%); herbicidal effect, J (Alopecurus myosuroides) (Alopecurus myosuroides): 1 (Herbicidal ratio of 5% or more and less than 20%)
C#CCN(C)c1nnc2c(C(=O)Nc3nnnn3C)ccc(C(F)(F)F)n12 [2-094] | 5 (Herbicidal ratio of 90% or more (almost completely withered)) | 4 (Herbicidal ratio of 70% or more and less than 90%) | 5 (Herbicidal ratio of 90% or more (almost completely withered)) | 1 (Herbicidal ratio of 5% or more and less than 20%) | 5 (Herbicidal ratio of 90% or more (almost completely withered)) | 3 (Herbicidal ratio of 40% or more and less than 70%) | 4 (Herbicidal ratio of 70% or more and less than 90%) | 1 (Herbicidal ratio of 5% or more and less than 20%) | 4 (Herbicidal ratio of 70% or more and less than 90%) | 5 (Herbicidal ratio of 90% or more (almost completely withered)) | 4 (Herbicidal ratio of 70% or more and less than 90%) | 1 (Herbicidal ratio of 5% or more and less than 20%) | 5 (Herbicidal ratio of 90% or more (almost completely withered)) | 4 (Herbicidal ratio of 70% or more and less than 90%) | 3 (Herbicidal ratio of 40% or more and less than 70%) | 2 (Herbicidal ratio of 20% or more and less than 40%) | 5 (Herbicidal ratio of 90% or more (almost completely withered)) | 4 (Herbicidal ratio of 70% or more and less than 90%) | 5 (Herbicidal ratio of 90% or more (almost completely withered)) | 3 (Herbicidal ratio of 40% or more and less than 70%) | herbicidal effect, N (Amaranthus retroflexus) (Amaranthus retroflexus): 4 (Herbicidal ratio of 70% or more and less than 90%); herbicidal effect, J (Alopecurus myosuroides) (Alopecurus myosuroides): 1 (Herbicidal ratio of 5% or more and less than 20%)
CN(CCC#N)c1nnc2c(C(=O)Nc3nnnn3C)ccc(C(F)(F)F)n12 [2-095] | 5 (Herbicidal ratio of 90% or more (almost completely withered)) | 5 (Herbicidal ratio of 90% or more (almost completely withered)) | 4 (Herbicidal ratio of 70% or more and less than 90%) | 3 (Herbicidal ratio of 40% or more and less than 70%) | 5 (Herbicidal ratio of 90% or more (almost completely withered)) | 5 (Herbicidal ratio of 90% or more (almost completely withered)) | 5 (Herbicidal ratio of 90% or more (almost completely withered)) | 1 (Herbicidal ratio of 5% or more and less than 20%) | 5 (Herbicidal ratio of 90% or more (almost completely withered)) | 5 (Herbicidal ratio of 90% or more (almost completely withered)) | 4 (Herbicidal ratio of 70% or more and less than 90%) | 3 (Herbicidal ratio of 40% or more and less than 70%) | 5 (Herbicidal ratio of 90% or more (almost completely withered)) | 5 (Herbicidal ratio of 90% or more (almost completely withered)) | 5 (Herbicidal ratio of 90% or more (almost completely withered)) | 4 (Herbicidal ratio of 70% or more and less than 90%) | 5 (Herbicidal ratio of 90% or more (almost completely withered)) | 5 (Herbicidal ratio of 90% or more (almost completely withered)) | 5 (Herbicidal ratio of 90% or more (almost completely withered)) | 4 (Herbicidal ratio of 70% or more and less than 90%) | herbicidal effect, N (Amaranthus retroflexus) (Amaranthus retroflexus): 5 (Herbicidal ratio of 90% or more (almost completely withered)); herbicidal effect, J (Alopecurus myosuroides) (Alopecurus myosuroides): 4 (Herbicidal ratio of 70% or more and less than 90%)
